{"source": "paper doi:10.1101/2023.07.11.548539v1", "about": "“A side-by-side comparison of peptide-delivered antisense antibiotics employing different nucleotide mimics” (bioRxiv, 2023)", "system": "outer membrane of Salmonella", "assay": "Outer membrane permeabilization (NPN fluorescence)", "type": "cell-based, Salmonella enterica serovar Typhimurium strain SL1344", "settings": "test compounds 10 µM final, added at 14 min; NPN 10 µM; 5 mM HEPES, 5 mM glucose pH 7.2; CTAB and Polymyxin B positive controls", "protocol": "The experiments were performed by modifying previously published protocols ([48]–[50]). Salmonella (WT SL1344, JVS-1574) were grown overnight in 4 ml MHB medium at 37 °C (with shaking at 220 rpm). Then the culture was diluted 1:100 and grown until OD 0.5 (∼2×10^8 cfu/mL). This culture was harvested and washed two times with 5mM HEPES and further diluted to OD 0.2 in 5 mM HEPES supplemented with 5 mM Glucose (pH 7.2). These cells were then incubated with N-phenylnaphthylamine (NPN) (Sigma, USA) at a final concentration of 10 µM. 190 µl of NPN treated cells were transferred into 96-well back plates with transparent bottom and fluorescence (excitation = 350 nm, emission = 420 nm) was recorded for 60 min (reading was performed every minute) using a Synergy H1 plate reader (Biotek). On the fourteenth minute, 10 µl of the test compounds (10 µM final concentration) was added into the wells. CTAB (Sigma, USA) 200 µM or Polymyxin B (Sigma, USA) 10 µg/ml (final concentration of 0.5 µg/ml) were used as positive controls, while water was used as negative control. The fluorescence of the wells were monitored using the same settings as above. The experiment was performed three times and Figure 10 is based on a single representative experiment."}
{"molecule": "CCCCCCCCCCCCCCCC[N+](C)(C)C.[Br-]", "note": "[CTAB, reference compound]", "values": [{"measurement": "Outer membrane permeabilization, NPN fluorescence (in words)", "value": "rapid increase in florescence"}]}
{"molecule": "Polymyxin B [reference compound]", "values": [{"measurement": "Outer membrane permeabilization, NPN fluorescence (in words)", "value": "rapid increase in florescence"}]}
